Source: ChEMBL document CHEMBL1201862, “PubChem BioAssay data set” (2004)
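48-hour exposure; five concentrations; linearly interpolated endpoints. GI50: concentration for 50% inhibition of growth.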 The source made the active and inactive calls. Cut-off read from the data, not from the text of the source: active = GI50 up to about 1.1 µM and inactive = higher.

Key:
Test in all cases: DTP human tumour cell line panel, 48 h
A498 = system: A498
CAKI-1 = system: CAKI-1
DLD-1 = system: DLD-1
DMS-114 = system: DMS-114
DMS-273 = system: DMS-273
HCC 2998 = system: HCC 2998
HOP-62 = system: HOP-62
HT-29 = system: HT-29
K562 = system: K562
KM-20L2 = system: KM-20L2
KM12 = system: KM12
MCF7 = system: MCF7
Malme-3M = system: Malme-3M
NCI-H460 = system: NCI-H460
NCI-H522 = system: NCI-H522
SK-MEL-28 = system: SK-MEL-28
SK-MEL-2 = system: SK-MEL-2
SN12C = system: SN12C
UO-31 = system: UO-31
M14 = system: M14

Structure (SMILES) | GI50 (A498) | GI50 (CAKI-1) | GI50 (DLD-1) | GI50 (DMS-114) | GI50 (DMS-273) | GI50 (HCC 2998) | GI50 (HOP-62) | GI50 (HT-29) | GI50 (K562) | GI50 (KM-20L2) | GI50 (KM12) | GI50 (MCF7) | GI50 (Malme-3M) | GI50 (NCI-H460) | GI50 (NCI-H522) | GI50 (SK-MEL-28) | GI50 (SK-MEL-2) | GI50 (SN12C) | GI50 (UO-31) | GI50 (M14)
Cn1c(=O)[nH]c2nncnc2c1=O | 87.1 µM (inactive) | 11 µM (inactive) | 384 µM (inactive) | 126 µM (inactive) | 21.6 µM (inactive) | 54 µM (inactive) | 34.4 µM (inactive) | 114 µM (inactive) | 211 µM (inactive) | 55.2 µM (inactive) | 23.8 µM (inactive) | 212 µM (inactive) | 44.7 µM (inactive) | 29.3 µM (inactive) | 157 µM (inactive) | 474 µM (inactive) | 120 µM (inactive) | 148 µM (inactive) | 46 µM (inactive) | –
Nc1cccc2c1C1=NNC(=O)CC1C2 (stereo unspecified) | > 100 µM (inactive) | > 100 µM (inactive) | > 100 µM (inactive) | > 100 µM (inactive) | > 100 µM (inactive) | > 100 µM (inactive) | > 66.5 µM (inactive) | – | > 100 µM (inactive) | > 100 µM (inactive) | > 100 µM (inactive) | > 100 µM (inactive) | > 100 µM (inactive) | > 100 µM (inactive) | > 100 µM (inactive) | > 100 µM (inactive) | > 100 µM (inactive) | > 100 µM (inactive) | > 100 µM (inactive) | –
c1ccc2c(c1)OCCc1cn[nH]c1-2 | > 93.5 µM (inactive) | 0.452 µM (active) | > 100 µM (inactive) | 99.1 µM (inactive) | > 100 µM (inactive) | > 100 µM (inactive) | > 61.7 µM (inactive) | > 100 µM (inactive) | > 100 µM (inactive) | > 100 µM (inactive) | > 100 µM (inactive) | > 100 µM (inactive) | > 100 µM (inactive) | > 100 µM (inactive) | > 100 µM (inactive) | > 100 µM (inactive) | > 100 µM (inactive) | > 79.3 µM (inactive) | > 100 µM (inactive) | –
C[C@]12CC[C@@H]3c4ccc(OCCN5CCCC5)cc4CC[C@H]3[C@@H]1CCC2=O | 81.1 µM (inactive) | 31.1 µM (inactive) | – | – | – | 10.3 µM (inactive) | 18.6 µM (inactive) | 25.9 µM (inactive) | 25.4 µM (inactive) | – | – | 22.5 µM (inactive) | – | 19.9 µM (inactive) | – | 49.5 µM (inactive) | 17.6 µM (inactive) | – | 20.8 µM (inactive) | 13.7 µM (inactive)
CSc1nc(CO)c(CO)n1C | > 100 µM (inactive) | > 100 µM (inactive) | > 100 µM (inactive) | > 100 µM (inactive) | > 100 µM (inactive) | > 100 µM (inactive) | > 100 µM (inactive) | > 100 µM (inactive) | > 100 µM (inactive) | > 100 µM (inactive) | > 100 µM (inactive) | > 100 µM (inactive) | – | > 100 µM (inactive) | > 100 µM (inactive) | > 100 µM (inactive) | > 100 µM (inactive) | > 100 µM (inactive) | > 100 µM (inactive) | –
NC(CCP(=O)(O)CCC1C=CC=CC1)C(=O)O (stereo unspecified) | – | > 100 µM (inactive) | – | – | – | > 100 µM (inactive) | – | > 100 µM (inactive) | > 100 µM (inactive) | – | > 100 µM (inactive) | – | – | > 100 µM (inactive) | 20.7 µM (inactive) | > 100 µM (inactive) | > 100 µM (inactive) | > 100 µM (inactive) | > 100 µM (inactive) | > 100 µM (inactive)
CSc1nc(NC2OC(CO)C(O)C(O)C2O)c(N)c(=O)[nH]1 (stereo unspecified) | > 100 µM (inactive) | – | > 100 µM (inactive) | > 100 µM (inactive) | > 100 µM (inactive) | > 100 µM (inactive) | > 100 µM (inactive) | > 100 µM (inactive) | > 100 µM (inactive) | > 100 µM (inactive) | > 100 µM (inactive) | > 100 µM (inactive) | > 100 µM (inactive) | > 100 µM (inactive) | > 100 µM (inactive) | > 100 µM (inactive) | > 100 µM (inactive) | > 100 µM (inactive) | > 100 µM (inactive) | –
COc1ccc2c(c1O)-c1cc(O)cc3c1[C@@H](C2)N(C)CC3 | 49.9 µM (inactive) | 12.3 µM (inactive) | 43.2 µM (inactive) | – | 65.8 µM (inactive) | 73.6 µM (inactive) | 32.9 µM (inactive) | > 92.3 µM (inactive) | 67.6 µM (inactive) | 2.84 µM (inactive) | 54.8 µM (inactive) | 61.8 µM (inactive) | 64 µM (inactive) | 74 µM (inactive) | 121 µM (inactive) | 80 µM (inactive) | 27.5 µM (inactive) | 82 µM (inactive) | 44.2 µM (inactive) | –
O=C(c1ccccc1)c1ccc2n[se]nc2c1 | 31.8 µM (inactive) | 27.7 µM (inactive) | 50 µM (inactive) | 12.4 µM (inactive) | 10.3 µM (inactive) | 8.93 µM (inactive) | – | 6.34 µM (inactive) | 4.29 µM (inactive) | 31.4 µM (inactive) | 4.54 µM (inactive) | – | > 100 µM (inactive) | – | 25.2 µM (inactive) | > 100 µM (inactive) | > 100 µM (inactive) | 54.7 µM (inactive) | > 100 µM (inactive) | 19.1 µM (inactive)
COc1cc(-c2cc(=O)c3c(O)c(CC=C(C)C)c(O)cc3o2)ccc1O | > 50 µM (inactive) | 10 µM (inactive) | – | – | – | – | 24.2 µM (inactive) | > 50 µM (inactive) | 16.7 µM (inactive) | – | – | 25.1 µM (inactive) | 13.5 µM (inactive) | 19.5 µM (inactive) | – | 1.17 µM (inactive) | 23.6 µM (inactive) | > 50 µM (inactive) | 33.5 µM (inactive) | 12.4 µM (inactive)
CCOC(=O)CSc1nc(N)c2c(-c3ccc(OC)c(OC)c3)c3c(nc2n1)CCCC3 | – | > 100 µM (inactive) | – | – | – | – | 39 µM (inactive) | > 100 µM (inactive) | > 100 µM (inactive) | – | > 100 µM (inactive) | > 100 µM (inactive) | 88.1 µM (inactive) | > 100 µM (inactive) | – | > 100 µM (inactive) | – | > 100 µM (inactive) | > 100 µM (inactive) | > 100 µM (inactive)
O=C(Nc1ccccc1F)c1c(O)nc2sccn2c1=O | > 10 µM (inactive) | > 10 µM (inactive) | – | – | – | > 10 µM (inactive) | > 10 µM (inactive) | > 10 µM (inactive) | – | – | > 10 µM (inactive) | > 10 µM (inactive) | > 10 µM (inactive) | > 10 µM (inactive) | > 10 µM (inactive) | > 10 µM (inactive) | > 10 µM (inactive) | > 10 µM (inactive) | > 10 µM (inactive) | > 10 µM (inactive)
